Measurements published in paper PMC6858440, “Computational redesign of the Escherichia coli ribose-binding protein ligand binding pocket for 1,3-cyclohexanediol and cyclohexanol” (Scientific Reports, 2019).

Target: RbsB ribose-binding protein (Escherichia coli, UniProt P02925)
Test: ITC with purified protein; also ~[…] °C Tm shift with […] ribose

Chain of RbsB ribose-binding protein (P02925 26-296): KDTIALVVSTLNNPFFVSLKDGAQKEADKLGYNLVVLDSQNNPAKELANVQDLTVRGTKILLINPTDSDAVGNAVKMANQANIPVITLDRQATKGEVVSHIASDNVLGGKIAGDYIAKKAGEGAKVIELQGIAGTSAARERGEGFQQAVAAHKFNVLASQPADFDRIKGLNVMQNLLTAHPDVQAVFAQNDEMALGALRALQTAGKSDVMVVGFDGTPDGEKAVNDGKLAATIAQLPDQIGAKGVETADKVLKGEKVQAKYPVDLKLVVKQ

`O=C[C@H](O)[C@H](O)[C@H](O)CO` [ribose] gave a Kd of 530 nM.
